Experimental data taken from patent US20240216395A1, “19-NOR C3,3-DISUBSTITUTED C21 -N-PYRAZOLYL STEROID FOR USE IN TREATING MAJOR DEPRESSIVE DISORDER AND […]” (priority 2021, published 2024).
Where “and” joins values, the source holds several entries; their conditions need not be identical. Equal values may be shown once. Read-outs that look alike come from different tables or passages of the source.

Key:
[1] = Abuse potential main study: plasma pharmacokinetics after a single oral dose; format: in vivo, human; conditions: for Tmax / half-life / AUC(0-t) / Cmax: human, plasma
Protocol: Safety and tolerability endpoints included the frequency and severity of AEs and SAEs, the change from baseline in clinical laboratory assessments, vital signs, and ECG, and suicidality assessed by the Columbia-Suicide Severity Rating Scale (C-SSRS).
During the treatment phase, PK measures were assessed predose and at multiple time points, from 0.5 to 24 hours after dosing. Blood samples collected for plasma analyses were kept frozen (approximately −70° C. to −80° C.) until analysis. The quantification of the Compound (1) plasma concentration was performed by a bioanalytical laboratory (PRA Health Sciences, Lenexa, Kansas) using a validated liquid chromatography with a tandem mass spectroscopic method. The validated range of the assay was 1.00 to 500 ng/ml.
All PK analyses were based on the PK analysis set. Descriptive statistics included sample size, arithmetic mean, standard deviation, arithmetic coefficient of variation (CV), first quartile, median, and the minimum and maximum values […]. For summary statistics, PK concentration values below the limit of quantification were treated as zero. For calculating PK parameters, PK concentration values of zero that occurred prior to or after the first quantifiable concentration were imputed as zero or missing, respectively. The Compound (1) plasma PK parameters were estimated for each participant using noncompartmental analysis (Phoenix® WinNonlin® version 8.0 or later). The estimation of the terminal-elimination rate constant (λz) and λz-derived PK parameters were dependent upon inspection of PK data and a minimum of three time points in the terminal phase with adjusted R2 ≥0.8.

[2] = test system: adult subjects with major depressive disorder (MDD); experiment: Phase 3 MDD study (NCT04442490): safety and tolerability (TEAEs, C-SSRS, PWC-20); format: in vivo, human
Protocol: • Incidence and severity of adverse events/serious adverse events • Changes from baseline in clinical laboratory measures, vital signs, and electrocardiograms (ECGs) • Suicidal ideation and behavior using the Columbia Suicide Severity Rating Scale (C-SSRS) • Potential withdrawal symptoms using the 20-item Physician Withdrawal Checklist (PWC-20)
Safety and tolerability of study drug was evaluated by incidence of adverse events/serious adverse events, vital signs, clinical laboratory evaluations, and 12-lead ECG.
Suicidality was monitored by the C-SSRS. Potential withdrawal symptoms after discontinuation of Compound (1) was assessed using the PWC-20.
Safety and tolerability were evaluated by incidence and severity of adverse events (AEs), serious adverse events (SAEs), changes from baseline in clinical laboratory evaluations, vital signs, and 12-lead electrocardiography. Suicidality was monitored by the Columbia Suicide Severity Rating Scale (C-SSRS). The Physician Withdrawal Checklist-20 total score (PWC-20TS) was used to monitor for the presence of potential withdrawal symptoms following discontinuation of Compound (1)-50 mg.

[3] = 50 mg (n = 268), through Day 42

C[C@@]1(O)CC[C@H]2[C@H](CC[C@@H]3[C@@H]2CC[C@]2(C)[C@@H](C(=O)Cn4cc(C#N)cn4)CC[C@@H]32)C1 [Compound (1), 1-(2-((3R,5R,8R,9R,10S,13S,14S,17S)-3-hydroxy-3,13-dimethylhexadecahydro-1H-cyclopenta[a]phenanthren-17-yl)-2-oxoethyl)-1H-pyrazole-4-carbonitrile]
AUC0-24, geometric mean ([1]; 60 mg single oral dose): 982 ng·h/mL | T½ values, range over doses ([1]; 30, 60, 90 mg, capsule): 10 to 11 h | Tmax ([1]; oral, 90 mg, 30, 60, 90 mg, capsule, read-out: Tmax (median), all three doses): 5.1 h | half-life ([1]; oral, 90 mg, 30, 60, 90 mg, capsule, read-out: T½ values, range over doses): 9.92 to 10.9 h | AUC(0-t) ([1]; oral, 30, 60, 90 mg, read-out: AUC0-24 values, range over doses): 520 to 1330 ng·h/mL | Cmax ([1]; oral, 30, 60, 90 mg, read-out: Cmax geometric mean values, range over doses): 55.5 to 123 ng/mL | half-life ([1]; po, 30 mg, 30 mg single oral dose (n = 66), read-out: T½, geometric mean (converted)): 10.1 h | Tmax ([1]; po, 30 mg, 30 mg single oral dose, read-out: Tmax, median): 5.1 h | half-life ([1]; po, 60 mg, 60 mg single oral dose (n = 60), read-out: T½, geometric mean (converted)): 9.9 h | Tmax ([1]; po, 60 mg, 60 mg single oral dose, read-out: Tmax, median): 5.1 h | half-life ([1]; po, 90 mg, 90 mg single oral dose (n = 62), read-out: T½, geometric mean (converted)): 10.9 h | Tmax ([1]; po, 90 mg, 90 mg single oral dose, read-out: Tmax, median): 5.1 h | Cmax ([1]; 30 mg single oral dose (n = 65), read-out: Cmax, geometric mean): 55.5 ng/mL | AUC(0-t) ([1]; 30 mg single oral dose, read-out: AUC0-24, geometric mean): 520 ng·h/mL | Cmax ([1]; 60 mg single oral dose (n = 66), read-out: Cmax, geometric mean): 97.6 ng/mL | Cmax ([1]; 90 mg single oral dose (n = 67), read-out: Cmax, geometric mean): 123 ng/mL | AUC(0-t) ([1]; 90 mg single oral dose, read-out: AUC0-24, geometric mean): 1330 ng·h/mL | AEs of loss of consciousness, weight gain, sexual dysfunction, euphoria ([2]; 50 mg): no loss of consciousness, weight gain, sexual dysfunction, or euphoria reported | Overall tolerability ([2]; 50 mg): generally well-tolerated | TEAE Alanine aminotransferase increased [2, 3]: 3 (1.1%) n (%) | TEAE Dry mouth [2, 3]: 10 (3.7%) n (%) | TEAE Tremor [2, 3]: 8 (3.0%) n (%) | Any TEAE ([2]; 50 mg, ADT use at baseline=Yes (N = 79)): 50 (63.3) n (%) | TEAE Abnormal dreams ([2]; 50 mg, ADT=Yes (N = 79)): 2 (2.5) n (%) | TEAE Alanine aminotransferase increased ([2]; 50 mg, ADT=Yes (N = 79)): 2 (2.5) n (%) | TEAE Diarrhea ([2]; 50 mg, ADT=Yes (N = 79)): 4 (5.1) n (%) | TEAE Disturbance in attention ([2]; 50 mg, ADT=Yes (N = 79)): 0 n (%) | TEAE Dizziness ([2]; 50 mg, ADT=Yes (N = 79)): 10 (12.7) n (%) | TEAE Dry mouth ([2]; 50 mg, ADT=Yes (N = 79)): 4 (5.1) n (%) | TEAE Flatulence ([2]; 50 mg, ADT=Yes (N = 79)): 0 n (%) | TEAE Gastroenteritis ([2]; 50 mg, ADT=Yes (N = 79)): 2 (2.5) n (%) | TEAE Headache ([2]; 50 mg, ADT=Yes (N = 79)): 9 (11.4) n (%) | TEAE Insomnia ([2]; 50 mg, ADT=Yes (N = 79)): 2 (2.5) n (%) | TEAE Nausea ([2]; 50 mg, ADT=Yes (N = 79)): 1 (1.3) n (%) | TEAE Restlessness ([2]; 50 mg, ADT=Yes (N = 79)): 2 (2.5) n (%) | TEAE Sedation ([2]; 50 mg, ADT=Yes (N = 79)): 7 (8.9) n (%) | TEAE Somnolence ([2]; 50 mg, ADT=Yes (N = 79)): 9 (11.4) n (%) | TEAE Suicidal ideation ([2]; 50 mg, ADT=Yes (N = 79)): 3 (3.8) n (%) | TEAE Tremor ([2]; 50 mg, ADT=Yes (N = 79)): 3 (3.8) n (%) | TEAE Upper respiratory tract infection ([2]; 50 mg, ADT=Yes (N = 79)): 2 (2.5) n (%) | TEAE Urinary tract infection ([2]; 50 mg, ADT=Yes (N = 79)): 2 (2.5) n (%) | C-SSRS: No suicidal ideation/behavior ([2]; 50 mg, Day 8 (N = 255)): 237 (92.9) n (%) | C-SSRS: Suicidal behavior ([2]; 50 mg, Day 8 (N = 255)): 0 n (%) | C-SSRS: Suicidal ideation ([2]; 50 mg, Day 8 (N = 255)): 18 (7.1) n (%) | C-SSRS: No suicidal ideation/behavior ([2]; 50 mg, Day 15 (N = 248)): 229 (92.3) n (%) | C-SSRS: Suicidal behavior ([2]; 50 mg, Day 15 (N = 248)): 0 n (%) | C-SSRS: Suicidal ideation ([2]; 50 mg, Day 15 (N = 248)): 19 (7.7) n (%) | PWC-20 total score change from first assessment (CFFA), mean (SD) ([2]; 50 mg, Day 18): −1.2 (4.3) and −1.2 (4.32) | Withdrawal symptoms by PWC-20 ([2]; 50 mg, Day 18 or 21): No signals for withdrawal symptoms | PWC-20 total score change from first assessment (CFFA), mean (SD) ([2]; 50 mg, Day 21): −0.3 (4.6) and −0.3 (4.37) | C-SSRS: No suicidal ideation/behavior ([2]; 50 mg, Day 42 (N = 240)): 223 (92.9) n (%) | C-SSRS: Suicidal behavior ([2]; 50 mg, Day 42 (N = 240)): 0 n (%) | C-SSRS: Suicidal ideation ([2]; 50 mg, Day 42 (N = 240)): 17 (7.1) n (%) | Suicidal ideation/behavior signal by C-SSRS ([2]; 50 mg, throughout the study): No signal of increased suicidal ideation/behavior | Patients with a TEAE whose TEAEs were mild and moderate in severity ([2]; clinical trial of Example 1): 95.0%
